We go through 18 compounds from patent US12404295B2, “(Hetero)aryl-methyl-thio-beta-D-galactopyranoside derivatives” (Idorsia Pharmaceuticals Ltd, priority 2019, dated 2025).

The target of one assay is human Gal-3 (hGal-3) (Homo sapiens (Human), UniProt P17931). Description: competitive binding assay: biotinylated hGal-3 binding to microplate-adsorbed asialofetuin (ASF). A digest of the protocol:
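Peroxidase activity developed with ABTS measures the biotinylated hGal-3 remaining on the asialofetuin-coated surface after competition with test compounds. Incubation ran 3 h at 4 °C, followed by 1 h with streptavidin-peroxidase at 80 ng/mL.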

A further assay addresses human Gal-1 (hGal-1) (Homo sapiens (Human), UniProt P09382). As to the kind of experiment: competitive binding assay: biotinylated hGal-1 binding to microplate-adsorbed asialofetuin (ASF). The settings on record: Table 15; read-out: IC50 (Galectin-1 inhibition). A digest of the protocol: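 Biotinylated human Gal-1 (300-1000 ng/mL) competes with serially diluted compound for binding to ASF-coated plates, 3 h at 4° C. Bound protein detected with streptavidin-peroxidase and ABTS substrate (spectrophotometric). IC50 given as mean of several measurements.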

[1] abbreviates: Gal-3 inhibition, binding of biotinylated hGal-3 to ASF, mean values, read-out: IC50.
Setting [2] is: Table 5, read-out: IC50 (Gal-3 inhibition).

Read-outs that look alike come from different tables or passages of the source.

Chain of human Gal-1 (hGal-1) (P09382 whole entry): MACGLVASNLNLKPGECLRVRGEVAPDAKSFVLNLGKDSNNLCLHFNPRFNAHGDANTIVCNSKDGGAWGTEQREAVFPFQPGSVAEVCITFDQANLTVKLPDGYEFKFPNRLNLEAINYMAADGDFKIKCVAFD
Chain of human Gal-3 (hGal-3) (P17931 whole entry): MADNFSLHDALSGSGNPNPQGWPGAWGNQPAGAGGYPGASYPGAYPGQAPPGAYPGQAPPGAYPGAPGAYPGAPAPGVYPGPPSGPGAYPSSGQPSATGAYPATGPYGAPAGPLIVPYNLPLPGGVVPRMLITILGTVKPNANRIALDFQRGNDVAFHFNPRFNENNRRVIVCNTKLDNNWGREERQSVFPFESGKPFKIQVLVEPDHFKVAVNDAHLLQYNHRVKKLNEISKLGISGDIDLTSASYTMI

A word on the IC50: it is the point on the concentration scale where inhibition reaches its midpoint. As for `OC[C@H]1O[C@@H](S[C@@H](c2nccnc2Cl)C2(O)CCC(F)(F)CC2)[C@H](O)[C@@H](n2cc(-c3cc(F)c(F)c(F)c3)nn2)[C@H]1O` [Example 2.44.133S., (2S,3R,4S,5R,6R)-2-(((S)-(3-Chloropyrazin-2-yl)(4,4-difluoro-1-hydroxycyclohexyl)methyl)thio)-6-(hydroxymethyl)-4-(4-(3,4,5-trifluorophenyl)-1H-1,2,3-triazol-1-yl)tetrahydro-2H-pyran-3,5-diol], the half-inhibitory concentration (IC50) turned out to be 1830 nM at human Gal-3 (hGal-3) (setting [1]) and 15800 nM on human Gal-1 (hGal-1).

Turning to `CC(C)(O)[C@@H](S[C@@H]1O[C@H](CO)[C@H](O)[C@H](n2cc(-c3cc(F)c(F)c(F)c3)nn2)[C@H]1O)c1ccccc1-c1ccccc1` [Example 2.31.110S., (2S,3R,4S,5R,6R)-2-(((S)-1-([1,1′-Biphenyl]-2-yl)-2-hydroxy-2-methylpropyl)thio)-6-(hydroxymethyl)-4-(4-(3,4,5-trifluorophenyl)-1H-1,2,3-triazol-1-yl)tetrahydro-2H-pyran-3,5-diol], the IC50 at human Gal-3 (hGal-3) (setting [1]) is 4900 nM; on human Gal-1 (hGal-1), 16700 nM.

In the case of `Cc1c(F)cccc1C(S[C@@H]1O[C@H](CO)[C@H](O)[C@H](n2cc(-c3cc(F)c(F)c(F)c3)nn2)[C@H]1O)C(C)(C)O` (stereo partly drawn) [Example 2.31.114., (2S,3R,4S,5R,6R)-2-((1-(3-Fluoro-2-methylphenyl)-2-hydroxy-2-methylpropyl)thio)-6-(hydroxymethyl)-4-(4-(3,4,5-trifluorophenyl)-1H-1,2,3-triazol-1-yl)tetrahydro-2H-pyran-3,5-diol], the concentration for half-maximal inhibition (IC50) on human Gal-3 (hGal-3) (setting [1]) was 130 nM; at human Gal-1 (hGal-1), 2270 nM.

Consider `CO[C@@H]1[C@@H](n2cc(-c3cc(F)c(F)c(F)c3)nn2)[C@@H](O)[C@@H](CO)O[C@H]1S[C@H](c1ccccc1C1CC1)C1(O)CCC(F)(F)CC1` [Example 2.44.106R.I., (2R,3R,4S,5R,6S)-6-(((R)-(2-Cyclopropylphenyl)(4,4-difluoro-1-hydroxycyclohexyl)methyl)thio)-2-(hydroxymethyl)-5-methoxy-4-(4-(3,4,5-trifluorophenyl)-1H-1,2,3-triazol-1-yl)tetrahydro-2H-pyran-3-ol], for which the concentration for half-maximal inhibition (IC50) was determined as 180 nM on human Gal-3 (hGal-3) (Table 10, 2-OMe-Gal inhibitors, read-out: IC50 (Gal-3 inhibition)) and 210 nM on human Gal-1 (hGal-1).

With `Cc1ccccc1[C@@H](S[C@@H]1O[C@H](CO)[C@H](O)[C@H](n2cc(-c3cc(F)c(F)c(F)c3)nn2)[C@H]1O)C1(O)CC(C)C1` (stereo partly drawn) [Example 2.36.102R., (2S,3R,4S,5R,6R)-2-(((1R)-(1-Hydroxy-3-methylcyclobutyl)(o-tolyl)methyl)thio)-6-(hydroxymethyl)-4-(4-(3,4,5-trifluorophenyl)-1H-1,2,3-triazol-1-yl)tetrahydro-2H-pyran-3,5-diol], the half-maximal inhibitory concentration (IC50) amounted to 440 nM on human Gal-3 (hGal-3) (setting [2]) and 3500 nM on human Gal-1 (hGal-1).

Turning to `CCc1ccccc1C(S[C@@H]1O[C@H](CO)[C@H](O)[C@H](n2cc(-c3cc(F)c(F)c(F)c3)nn2)[C@H]1O)C(C)(C)O` (stereo partly drawn) [Example 2.31.103., (2S,3R,4S,5R,6R)-2-((1-(2-Ethylphenyl)-2-hydroxy-2-methylpropyl)thio)-6-(hydroxymethyl)-4-(4-(3,4,5-trifluorophenyl)-1H-1,2,3-triazol-1-yl)tetrahydro-2H-pyran-3,5-diol], the 50% inhibitory concentration (IC50) stood at 300 nM at human Gal-3 (hGal-3) (setting [1]) and 1230 nM on human Gal-1 (hGal-1).

“(2S,3R,4S,5R,6R)-2-(((R)-(3,3-Difluoro-1-hydroxycyclobutyl)(3-(trifluoromethyl)pyridin-2-yl)methyl)thio)-6-(hydroxymethyl)-4-(4-(3,4,5-trifluorophenyl)-1H-1,2,3-triazol-1-yl)tetrahydro-2H-pyran-3,5-diol [Example 2.35.125R.]”: the concentration for half-maximal inhibition (IC50) at human Gal-3 (hGal-3) (setting [2]) turned out to be 100 nM; at human Gal-1 (hGal-1), 810 nM.

Regarding `CCc1c([C@H](S[C@@H]2O[C@H](CO)[C@H](O)[C@H](n3cc(-c4cc(F)c(F)c(F)c4)nn3)[C@H]2O)C2(O)CCC(F)(F)CC2)noc1C1CC1` [Example 2.44.130S., (2S,3R,4S,5R,6R)-2-(((S)-(5-Cyclopropyl-4-ethylisoxazol-3-yl)(4,4-difluoro-1-hydroxycyclohexyl)methyl)thio)-6-(hydroxymethyl)-4-(4-(3,4,5-trifluorophenyl)-1H-1,2,3-triazol-1-yl)tetrahydro-2H-pyran-3,5-diol], the IC50 is 1850 nM at human Gal-3 (hGal-3) (setting [1]) and 5650 nM on human Gal-1 (hGal-1).

In the case of `CN1CCC(O)(C(S[C@@H]2O[C@H](CO)[C@H](O)[C@H](n3cc(-c4cc(F)c(F)c(F)c4)nn3)[C@H]2O)c2ncccc2C(F)(F)F)CC1` (stereo partly drawn) [Example 2.40.125., (2S,3R,4S,5R,6R)-2-(((4-Hydroxy-1-methylpiperidin-4-yl)(3-(trifluoromethyl)pyridin-2-yl)methyl)thio)-6-(hydroxymethyl)-4-(4-(3,4,5-trifluorophenyl)-1H-1,2,3-triazol-1-yl)tetrahydro-2H-pyran-3,5-diol], the 50% inhibitory concentration (IC50) at human Gal-3 (hGal-3) (setting [2]) stood at 200 nM; on human Gal-1 (hGal-1) it was 530 nM.

With `Cc1nc(C)c([C@H](S[C@@H]2O[C@H](CO)[C@H](O)[C@H](n3cc(-c4cc(F)c(F)c(F)c4)nn3)[C@H]2O)C2(O)CCC(F)(F)CC2)nc1C` [Example 2.44.119S., (2S,3R,4S,5R,6R)-2-(((S)-(4,4-Difluoro-1-hydroxycyclohexyl)(3,5,6-trimethylpyrazin-2-yl)methyl)thio)-6-(hydroxymethyl)-4-(4-(3,4,5-trifluorophenyl)-1H-1,2,3-triazol-1-yl)tetrahydro-2H-pyran-3,5-diol], the IC50 was found to be 700 nM at human Gal-3 (hGal-3) (setting [2]) and 7210 nM at human Gal-1 (hGal-1).

For `COC(=O)N1CCC(O)([C@@H](S[C@@H]2O[C@H](CO)[C@H](O)[C@H](n3cc(-c4cc(F)c(F)c(F)c4)nn3)[C@H]2O)c2ccccc2C(F)(F)F)CC1` [Example 2.50.112S., Methyl 4-((S)-(((2S,3R,4S,5R,6R)-3,5-dihydroxy-6-(hydroxymethyl)-4-(4-(3,4,5-trifluorophenyl)-1H-1,2,3-triazol-1-yl)tetrahydro-2H-pyran-2-yl)thio)(2-(trifluoromethyl)phenyl)methyl)-4-hydroxypiperidine-1-carboxylate], the IC50 at human Gal-3 (hGal-3) (setting [1]) amounted to 7700 nM; on human Gal-1 (hGal-1), 15800 nM.

In the case of `Cc1ccccc1[C@H](S[C@@H]1O[C@H](CO)[C@H](O)[C@H](n2cc(-c3cc(F)c(F)c(F)c3)nn2)[C@H]1O)C1(O)CCOCC1` [Example 2.41.102S.], the IC50 on human Gal-3 (hGal-3) (setting [2]) was 7360 nM; at human Gal-1 (hGal-1) it was 65400 nM.

As for `CCCCCc1ccccc1C(S[C@@H]1O[C@H](CO)[C@H](O)[C@H](n2cc(-c3cc(F)c(F)c(F)c3)nn2)[C@H]1O)C(C)(C)O` (stereo partly drawn) [Example 2.31.109., (2S,3R,4S,5R,6R)-2-((2-Hydroxy-2-methyl-1-(2-pentylphenyl)propyl)thio)-6-(hydroxymethyl)-4-(4-(3,4,5-trifluorophenyl)-1H-1,2,3-triazol-1-yl)tetrahydro-2H-pyran-3,5-diol], the IC50 came to 540 nM at human Gal-3 (hGal-3) (setting [1]) and 3230 nM at human Gal-1 (hGal-1).

Turning to `Cc1nc(C)c([C@H](S[C@@H]2O[C@H](CO)[C@H](O)[C@H](n3cc(-c4cc(F)c(F)c(F)c4)nn3)[C@H]2O)C2(O)CCN(C)CC2)nc1C` [Example 2.40.119S., (2S,3R,4S,5R,6R)-2-(((S)-(4-Hydroxy-1-methylpiperidin-4-yl)(3,5,6-trimethylpyrazin-2-yl)methyl)thio)-6-(hydroxymethyl)-4-(4-(3,4,5-trifluorophenyl)-1H-1,2,3-triazol-1-yl)tetrahydro-2H-pyran-3,5-diol], the IC50 was 3040 nM on human Gal-3 (hGal-3) (setting [1]) and 10800 nM on human Gal-1 (hGal-1).

As to `CCc1cccnc1[C@@H](S[C@@H]1O[C@H](CO)[C@H](O)[C@H](n2cc(-c3cc(F)c(F)c(F)c3)nn2)[C@H]1OC)C1(O)CCC(F)(F)CC1` [Example 2.44.142R.I., (2R,3R,4S,5R,6S)-6-(((R)-(4,4-Difluoro-1-hydroxycyclohexyl)(3-ethylpyridin-2-yl)methyl)thio)-2-(hydroxymethyl)-5-methoxy-4-(4-(3,4,5-trifluorophenyl)-1H-1,2,3-triazol-1-yl)tetrahydro-2H-pyran-3-ol [1,3-di-deoxy-1-((4,4-difluoro-1-hydroxy-cyclohexan-1-yl)-(3-(-ethyl)pyridin-2-yl)methyl-(R)-thio)-2-O-methyl-3-[4-(3,4,5-trifluorophenyl)-1H-1,2,3-triazol-1-yl]-b-D-galactopyranoside]], the IC50 came to 30 nM on human Gal-3 (hGal-3) (Table 11, read-out: IC50 (Gal-3 inhibition)) and 100 nM at human Gal-1 (hGal-1).

For `Cc1nc(C)c([C@@H](S[C@@H]2O[C@H](CO)[C@H](O)[C@H](n3cc(-c4cc(F)c(F)c(F)c4)nn3)[C@H]2O)C2(O)CCOCC2)nc1C` [Example 2.41.119R., (2R,3R,4S,5R,6S)-2-(Hydroxymethyl)-6-(((R)-(4-hydroxytetrahydro-2H-pyran-4-yl)(3,5,6-trimethylpyrazin-2-yl)methyl)thio)-4-(4-(3,4,5-trifluorophenyl)-1H-1,2,3-triazol-1-yl)tetrahydro-2H-pyran-3,5-diol], the IC50 on human Gal-3 (hGal-3) (setting [2]) came out at 60 nM; on human Gal-1 (hGal-1), 490 nM.

As for `CO[C@@H]1[C@@H](n2cc(-c3cc(F)c(F)c(F)c3)nn2)[C@@H](O)[C@@H](CO)O[C@H]1SC(c1ccccc1C(F)(F)F)C1(O)CCN(C(=O)NC2CC2)CC1` (stereo partly drawn) [Example 2.49.112.I.], the values for the IC50 on human Gal-3 (hGal-3) (setting [1]) and on human Gal-1 (hGal-1) were 210 nM and 490 nM, respectively.

Turning to `O=C(NC1CC1)N1CCC(O)([C@@H](S[C@@H]2O[C@H](CO)[C@H](O)[C@H](n3cc(-c4cc(F)c(F)c(F)c4)nn3)[C@H]2O)c2ccccc2C(F)(F)F)CC1` [Example 2.49.112S., N-Cyclopropyl-4-((S)-(((2S,3R,4S,5R,6R)-3,5-dihydroxy-6-(hydroxymethyl)-4-(4-(3,4,5-trifluorophenyl)-1H-1,2,3-triazol-1-yl)tetrahydro-2H-pyran-2-yl)thio)(2-(trifluoromethyl)phenyl)methyl)-4-hydroxypiperidine-1-carboxamide], the values for the IC50 on human Gal-3 (hGal-3) (setting [1]) and on human Gal-1 (hGal-1) were 3060 nM and 12100 nM, respectively.
